Data as given in a melting point compilation (Tetko et al.; mined from patent text by program, amines drawn as free bases though some values may be those of a salt).

| melting point | Compound |
| --- | --- |
| 133 to 138 °C | CN(C)c1ccc(S(N)(=O)=O)cn1 |
| 182 °C | NS(=O)(=O)c1cccc(-c2cc(-c3nc(-c4ccc(Cl)cc4)cc(C(F)(F)F)n3)ccn2)c1 |
| 238 °C | O=C(N[C@H]1C[C@H](C(=O)O)Nc2cc(Cl)cc(Cl)c21)C(c1ccccc1)c1ccccc1 (relative stereo) |
| 139 to 142 °C | CN(CCOc1ccc(CC2SC(=O)NC2=O)cc1)C(=O)c1ccccc1 (stereo unspecified) |
| 178 to 179 °C | O=C(O)CCC(=O)c1ccc(NC(=O)C2(Cl)CC2)cc1 |
| 159 to 160 °C | Cc1nc2ccccc2c(=O)n1CCO |
| 200 °C | Cn1cc2c(=O)[nH]c(=O)[nH]c2n1 |
| 210 to 211 °C | O=C(Nc1cccnc1)N1CCN(c2nccc(-c3cccc(F)c3)n2)CC1 |
| 121 to 124 °C | CN(C)CC1(C2(O)CCCCC2)Cc2cc3c(cc21)N(C)CC3 (stereo unspecified) |
| 117 to 120 °C | CCCCCCCCCCCCCCCCCCOc1cc(C(N)=O)cc([N+](=O)[O-])c1 |
| 98 to 99 °C | O=C1OC(c2ccccc2)CN1Sc1ccc(Cl)cc1 (stereo unspecified) |
| > 200 °C | O=C(Nc1ccccc1Cl)C1CN(C(=O)Nc2ccc(C(F)(F)F)cc2)N=C1c1ccc(Cl)cc1 (stereo unspecified) |
| > 300 °C | Cc1[nH]c(/C=C2\C(=O)Nc3cc(NC(=O)c4cccn(-c5ccc(F)cc5)c4=O)ccc32)c(C)c1CC(=O)O |
| 159 to 160 °C | CS(=O)(=O)c1ccc(Oc2cc(OCc3ccccc3)c3[nH]c(-c4nnc(CO)s4)cc3c2)cc1 |
| 230 to 232 °C | CSc1cc2c(cc1C(F)(F)F)N(C(=O)Nc1ccc(C(=O)N(C)c3ccncc3)cc1)CC2 |
| 161 °C | NCCc1cc(Cl)c(NC(=O)CN2CCN(CCCCC(c3ccc(F)cc3)c3ccc(F)cc3)CC2C(N)=O)c(Cl)c1 (stereo unspecified) |
| 163 °C | CSc1ccc(-c2c(C)nnc(Cl)c2-c2ncc(Cl)cc2Cl)nc1 |
| 192 to 196 °C | CCN1CCN(CC(=O)NC2(c3cc4ccccc4o3)C(=O)Nc3cc(Cl)cc(Cl)c32)CC1 (single isomer, unassigned; (+)) |
| 85 to 87 °C | O=C(OCc1ccccc1)[C@H](Cc1ccccc1)NC(=O)N1CCOCC1 |
| 82 to 86 °C | CC(C)(C)NC(=O)[C@H](Cc1ccc(OCc2c(Cl)cccc2Cl)cc1)NC(=O)OC(C)(C)C |
| > 300 °C | O=c1[nH]c(-c2ccccc2)nc(-c2ccncc2)c1Br |
| 190 °C | O=C(O)c1c(F)ccc([N+](=O)[O-])c1C(F)(F)F |
| 86 to 87 °C | COc1cc(F)ccc1OCC#Cc1ccc(Cl)nc1 |

| melting point | Compound |
| --- | --- |
| 108 to 110 °C | COC(=O)c1cccc(C=CC(=O)c2cc(OC)ccc2OC)c1 |
| 74 to 75 °C | CCCCCCCCCCCCCCOC(=O)c1cc(N)cc(C(=O)OCCCCCCCCCCCCCC)c1 |
| 239 °C | CCOCc1c2c(cc3c(=O)cc(C(=O)O)oc13)CCCC2 |
| 143 to 144 °C | O=C(O)Cc1nc(C(=O)c2ccccc2)no1 |
| 167 to 168 °C | CC[C@H](C)[C@H](NS(=O)(=O)c1cccc2ccccc12)C(=O)N[C@@H](Cc1c[nH]c2ccccc12)C(=O)O |
| 162 to 164 °C | O=C(c1ccc(Br)cc1)c1cccc2cc[nH]c12 |
| 202 to 203 °C | O=S(=O)(Nc1ncnc(Cl)c1Cc1cccc2ccccc12)c1ccc(Cl)cc1 |
| 144 °C | CCCCOc1ccc(S(=O)(=O)C2(C(=O)NO)CCN(Cc3ccccc3)CC2)cc1 |
| 128 to 130 °C | COC(=O)c1ccc(C(O)C#Cc2cc(-c3cccs3)c(OC)cc2OC)cc1 (stereo unspecified) |
| 57 to 58 °C | CC(C)Oc1cc(CC(=O)O)c(F)cc1Cl |
| 200 to 202 °C | CC(=O)NC[C@H]1NC(=O)[C@H]1NC(=O)Cc1ccccc1 (relative stereo) |
| 93 to 100 °C | COC1C(C)OC(ON(C)Cc2ccc(-c3ncn(-c4ccc(OC(F)(F)F)cc4)n3)cc2)C(OC)C1OC (stereo unspecified) |
| 173 to 174 °C | CCOC(=O)c1nc(-c2ccc(F)cc2)c(-c2ccc(S(C)(=O)=O)cc2)s1 |
| 134 to 138 °C | O=C1N(CC2CCCO2)c2ccccc2C12COc1cc3c(cc12)OCCCO3 (stereo unspecified) |
| 192 to 194 °C | NC(=O)c1ncn2c1NCC=C2c1cccc(C(F)(F)F)c1 |
| 40.5 to 41.5 °C | CCOC(=O)Cc1ccccc1I |
| 165 to 167 °C | N#Cc1ccc(OCCCCCOc2ccc(-c3cc4ccc(C#N)cc4o3)cc2)cc1 |
| 68 to 70 °C | O=C=Nc1c(Br)cccc1Br |
| 175 to 176 °C | CC=Cc1cnc(C2=NC(C)(C(C)C)C(=O)N2)c(C(=O)O)c1 (stereo unspecified) |
| 80 to 81 °C | CCCCCCCc1ccc(C(=O)CCCCC(=O)O)cc1 |
| 178 to 180 °C | CC(=O)Nc1ccc(F)c(N2CCN(C(C)=O)CC2)n1 |
| 76 to 78 °C | CCOC(=O)c1cc(CC)sc1Nc1ccc(Br)cc1[N+](=O)[O-] |
| 173 to 175 °C | O=C1C(c2cc(OCc3ccccc3)ccc2O)c2ccccc2N1Cc1ccc(Cl)s1 (stereo unspecified) |

| melting point | Compound |
| --- | --- |
| 233 to 235 °C | Cc1c(-c2ccncc2)[nH]c2ccc(C3=NNC(=O)CC3C)cc12 (stereo unspecified) |
| 150 to 155 °C | CC(=O)c1c(C(=O)N(C)C)[nH]c2ccc(Cl)cc12 |
| 62 to 64 °C | CCN[C@@H]1CN(C(=O)c2nn(C)c3ccccc23)C[C@@H]1C (relative stereo) |
| 214 to 216 °C | CC(C)(C)C1(c2ccc(C(=O)O)cc2)OCCO1 |
| 80 to 82 °C | COc1cc2ccc3c(OC)cccc3c2c(OC)c1OC |
| 51 to 52 °C | Fc1ccc(-c2cccs2)cc1 |
| 143 to 145 °C | COc1ccc(-c2ccc(-c3ccc(F)cc3)nc2-c2ccc(O)cc2)cc1 |
| 158 to 159 °C | Cc1nc(-c2ccc(F)cc2)c(-c2ccc(S(C)(=O)=O)cc2)o1 |
| 120 °C | Cn1ccnc1COc1cccc(Nc2cc(-c3c[nH]nc3-c3ccccn3)ccn2)c1 |
| 314 to 315 °C | N#Cc1ccc(C=Cc2ccc(-c3cc4ccccc4o3)cc2)cc1 |
| 102 to 104 °C | CCO/C=C/C(=O)Nc1cccc(Br)c1OC |
| 35 to 37 °C | CCOC(=O)c1ccc2oc(CC)nc2c1 |
| 72 to 73 °C | CCOC(=O)c1cc(-c2nn3c(c2Cl)CCCC3)c(F)cc1Cl |
| 117 to 120 °C | CCC(N1CCC(Oc2c(F)c(F)c(F)c(F)c2F)CC1)n1c(=O)[nH]c2ccccc21 (stereo unspecified) |
| 104 to 106 °C | CCOC(=O)c1ccc(NCCc2cccc3ccccc23)cc1 |
| 95 to 96 °C | CCCCCCCCCCCCCCOc1ccc(C(=O)O)s1 |
| > 310 °C | Cc1ccc(S(=O)(=O)N(C(N)=O)c2cccc(Br)n2)cc1 |
| 122 to 123 °C | CCC(=O)SCC(CC(=O)c1ccc(Br)cc1)C(=O)O (stereo unspecified) |
| 147 to 152 °C | COC(=O)c1cn(C(c2ccccc2)(c2ccccc2)c2ccccc2)cn1 |
| 95 to 96 °C | CN1CCC(Oc2ccccn2)(c2ccccc2)CC1 |
| 65 to 67 °C | CCOc1cc(C(CC(=O)OC)N2C(=O)c3ccc(N)cc3C2=O)ccc1OC (stereo unspecified) |
| 160 to 161 °C | COc1cc(C(C)C)c2c(c1)S(=O)(=O)N(COc1cc(C(F)(F)F)nn1-c1ccc(Cl)cc1)C2=O |
| 129 to 131 °C | CC(=NNC(=S)N1CCCCCC1)c1ccc2ccccc2n1 |

| Compound | melting point |
| --- | --- |
| CCCN(CCC)Cc1coc(-c2ncn3c2CN(C)C(=O)c2ccccc2-3)n1 | 109 to 110 °C |
| CC12CC(N3CCC4(CC3)OCCO4)C(O)CC1CCC1C2CCC2(C)C(O)C(N3CCC(O)CC3)CC12 (stereo unspecified) | 253 to 255 °C |
